Experimental data reported in PubChem BioAssay (NCI).
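In this assay, cells in 96-well plates receive the compound at five concentrations for 48 hours. Endpoints are linearly interpolated between the surrounding concentrations. Abbreviation: GI50, concentration required for 50% inhibition of growth. The concentration for full growth arrest is given as TGI.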

Tests used:
Assay in all cases: NCI anticancer screen, dose series, 48 h
786-0 renal = test system: 786-0 renal
DMS 273 small cell lung = test system: DMS 273 small cell lung
NCI-H226 lung = test system: NCI-H226 lung
HT29 colon = test system: HT29 colon
KM20L2 colon = test system: KM20L2 colon
HL-60(TB) leukemia = test system: HL-60(TB) leukemia
OVCAR-5 ovarian = test system: OVCAR-5 ovarian
UACC-257 melanoma = test system: UACC-257 melanoma
SF-539 CNS = test system: SF-539 CNS
SR leukemia = test system: SR leukemia

SMILES | TGI (786-0 renal) | TGI (DMS 273 small cell lung) | TGI (NCI-H226 lung) | TGI (HT29 colon) | TGI (KM20L2 colon) | TGI (HL-60(TB) leukemia) | TGI (OVCAR-5 ovarian) | TGI (UACC-257 melanoma) | TGI (SF-539 CNS) | GI50 (786-0 renal) | GI50 (NCI-H226 lung) | GI50 (HT29 colon) | GI50 (KM20L2 colon) | GI50 (HL-60(TB) leukemia) | GI50 (OVCAR-5 ovarian) | GI50 (UACC-257 melanoma) | GI50 (SF-539 CNS) | GI50 (SR leukemia) | TGI (SR leukemia)
O=c1cccccc1NCCOCCNc1cccccc1=O | > 100 µM | > 100 µM | > 100 µM | > 100 µM | > 100 µM | > 100 µM | > 100 µM | > 100 µM |  |  |  |  |  |  |  |  |  |  | 
O=c1/c(=C/c2cccc([N+](=O)[O-])c2)sc2nc3ccccc3n12 | > 100 µM | > 100 µM | > 100 µM | > 100 µM |  | > 100 µM | > 100 µM | > 100 µM |  |  |  |  |  |  |  |  |  |  | 
COC(=O)C1=C(O)c2cc(OC)c(OC)c(OC)c2[C@H](c2cc(OC)c(OC)c(OC)c2)C1C(=O)OC (some centres undefined) | > 100 µM | 51.4 µM | > 100 µM | 61.6 µM | 37.5 µM | 61.6 µM | > 100 µM | > 100 µM | 38.9 µM |  |  |  |  |  |  |  |  |  | 
CCOC(=O)/C(O)=C(/c1n[nH]c(=O)c2ccccc12)[N+](=O)[O-] | > 100 µM | > 100 µM | > 100 µM | > 100 µM | > 100 µM | > 100 µM | > 100 µM | > 100 µM | > 100 µM |  |  |  |  |  |  |  |  |  | 
CC1(C)COC(C23C4C5C2C2C3C4C52I)=N1 (centres undefined) | > 100 µM |  | > 100 µM | > 100 µM | > 100 µM |  | > 100 µM | > 100 µM | > 100 µM |  |  |  |  |  |  |  |  |  | 
CC(=O)[CH-]C(=O)c1ccccc1.CC(=O)[CH-]C(=O)c1ccccc1.CC[O-].CC[O-].[Zr+4] | > 100 µM |  | > 100 µM | > 100 µM | > 100 µM | > 100 µM | > 100 µM | > 100 µM | > 100 µM | > 100 µM | > 100 µM | > 100 µM | > 100 µM | > 100 µM | > 100 µM | > 100 µM | > 100 µM |  | 
O=S(=O)(O)O.[NH-]C1CCCCC1[NH-].[Pt+2] (centres undefined) | > 100 µM |  |  | > 100 µM | > 100 µM | > 100 µM | > 100 µM | > 100 µM | > 100 µM | 40.7 µM |  | 63.1 µM | 35.8 µM | 19.3 µM | > 100 µM | > 100 µM | > 100 µM |  | 
C[n+]1c(/C=C\c2ccc(Cl)cc2)ccc2ccccc21 | > 100 µM |  | > 100 µM | > 100 µM |  | > 100 µM | > 100 µM | 62.4 µM | 92.2 µM | > 100 µM | 72.1 µM | 19.4 µM |  | 24.2 µM | 4.36 µM | 16.2 µM | 15.9 µM | 45.8 µM | > 100 µM
CC1=NN(c2ccccc2)C(=O)C1N=Nc1ccc([As](=O)(O)O)c(O)c1 (centres undefined) | > 100 µM |  | > 100 µM | > 100 µM |  | > 100 µM | > 100 µM | > 100 µM | > 100 µM |  |  |  |  |  |  |  |  |  | > 100 µM
Oc1ccc(-c2nnc3sc(-c4ccc(F)c(Oc5ccccc5)c4)nn23)cc1 | 50.3 µM |  | 98.4 µM | > 100 µM |  | > 100 µM | > 100 µM | > 100 µM | 65 µM | 21.8 µM | 24.6 µM | 27.4 µM |  | > 100 µM | > 100 µM | > 100 µM | 24.2 µM | 29.9 µM | > 100 µM
COc1ccc2nc(-c3cc(-c4cc(OC)c(OC)c(OC)c4)n[nH]3)[nH]c2c1 | 12.8 µM |  | 2.98 µM | 16.2 µM |  | 4.81 µM | 12.6 µM | 3.69 µM | 9.71 µM | 2.92 µM | 0.462 µM | 2.76 µM |  | 1.69 µM | 3.03 µM | 1.67 µM | 2.42 µM | 1.74 µM | 8.38 µM
Cc1nc(Cl)nc(Cl)c1C | > 100 µM |  | > 100 µM | > 100 µM |  | > 100 µM | > 100 µM | > 100 µM | > 100 µM |  |  |  |  |  |  |  |  |  | > 100 µM
CCOc1c(Br)cc(C2C(C(=O)OC)=CN(C)C=C2C(=O)OC)cc1OC | > 100 µM |  | > 100 µM | > 100 µM |  | > 100 µM | > 100 µM | > 100 µM | > 100 µM | > 100 µM | 86.3 µM | 45.6 µM |  | 37.8 µM | > 100 µM | 72.3 µM | > 100 µM | 30.6 µM | > 100 µM
CC[C@H](C)[C@H]1NC(=O)[C@@H](N[C@](C)(O)[C@@H](N)CC(C)C)[C@@H](C)OC(=O)[C@H](Cc2ccc(OC)cc2)N(C)C(=O)[C@@H]2CCCN2C(=O)[C@H](CC(C)C)NC(=O)[C@@H](C)C(=O)[C@H](C(C)C)OC(=O)C[C@@H]1O | 2.94 µM |  | 0.501 µM | 0.702 µM |  | 0.281 µM | 0.799 µM | 0.337 µM | 0.185 µM | 0.0225 µM | 0.0175 µM | 0.00695 µM |  | 0.0218 µM | 0.0204 µM | 0.0408 µM | 0.0165 µM | 0.00603 µM | 0.0422 µM
COC(=O)Nc1nc2ccc(Oc3ccc(NC(=O)Nc4cccc(C(=O)O)c4)cc3)cc2[nH]1 | > 25 µM |  | > 25 µM | > 25 µM |  | 17.4 µM | > 25 µM | > 25 µM | > 20.9 µM | 10.5 µM | 5.2 µM | 7.35 µM |  | 6.1 µM | 12 µM | > 22.2 µM | 4.95 µM | 2.41 µM | > 25 µM
Cn1cc(C2=C(c3cccc4ccccc34)C(=O)NC2=O)c2ccccc21 | > 25 µM |  | > 25 µM | > 25 µM |  | > 25 µM | > 25 µM | > 25 µM | 14.2 µM | 7.99 µM | 7.7 µM | 7.45 µM |  | 10.4 µM | 12.8 µM | 12.1 µM | 5.99 µM | 7 µM | > 20.9 µM
COc1cc(-c2nc(Nc3nc4ccccc4[nH]3)nc(N)c2C#N)cc(OC)c1OC | > 100 µM |  | > 89.3 µM | 24.1 µM |  | > 100 µM | > 86.4 µM | > 100 µM | 36.2 µM | 20.2 µM | 32.7 µM | 0.877 µM |  | 0.991 µM | 27.8 µM | > 100 µM | 10.7 µM | 0.23 µM | > 100 µM
